# Experimental data taken from the supplement of paper PMC10307832.
# Legend:
# Test in all cases: relative viability (nuclei count vs DMSO), 5 days (fraction); higher = more cells survive
# IDH-C35 + Bortezomib = compound: Cc1ccccc1C(C(=O)NC1CCCCC1)N(C(=O)Cn1ccnc1C)c1cccc(F)c1 [IDH-C35] + CC(C)C[C@H](NC(=O)[C@H](Cc1ccccc1)NC(=O)c1cnccn1)B(O)O [Bortezomib] (partner 0.002 µM)
# How it was run: (§1)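 Five library-drug doses in √10 steps were combined with a fixed anchor-drug dose, or a single drug was given alone, by pin tool to lung cancer cell lines in 1536-well plates the day after seeding. Nuclei were stained and counted after 5 days. Relative viability is the nuclei count in treated wells over that in vehicle wells, taken as the median of duplicate plates.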
# [1] = compound: CC1=C(C(=NN1)C)CC2=C(C3=C(S2)N(C(=O)N(C3=O)C)CC(C)C)C(=O)N4C[C@@H](CO4)O + Cc1cc(Nc2cc(N3CCN(C)CC3)nc(Sc3ccc(NC(=O)C4CC4)cc3)n2)n[nH]1 [Tozasertib] (partner 0.1 µM)
# How it was run: as §1
# IDH-C35 + Lapatinib = compound: Cc1ccccc1C(C(=O)NC1CCCCC1)N(C(=O)Cn1ccnc1C)c1cccc(F)c1 [IDH-C35] + CS(=O)(=O)CCNCc1ccc(-c2ccc3ncnc(Nc4ccc(OCc5cccc(F)c5)c(Cl)c4)c3c2)o1 [Lapatinib] (partner 2 µM)
# How it was run: as §1
# [2] = compound: CC1=C(C(=NN1)C)CC2=C(C3=C(S2)N(C(=O)N(C3=O)C)CC(C)C)C(=O)N4C[C@@H](CO4)O + N=C(N)NC(=N)NCCc1ccccc1 [Phenformin] (partner 250 µM)
# How it was run: as §1
Cell Line,relative viability (IDH-C35 + Bortezomib; first compound 0.08 µM),relative viability (IDH-C35 + Bortezomib; first compound 0.253 µM),relative viability (IDH-C35 + Bortezomib; first compound 0.8 µM),relative viability (IDH-C35 + Bortezomib; first compound 2.53 µM),relative viability (IDH-C35 + Bortezomib; first compound 8 µM),relative viability ([1]; first compound 0.0025 µM),relative viability ([1]; first compound 0.007906 µM),relative viability ([1]; first compound 0.025 µM),relative viability ([1]; first compound 0.07906 µM),relative viability ([1]; first compound 0.25 µM),relative viability (IDH-C35 + Lapatinib; first compound 0.08 µM),relative viability (IDH-C35 + Lapatinib; first compound 0.253 µM),relative viability (IDH-C35 + Lapatinib; first compound 0.8 µM),relative viability (IDH-C35 + Lapatinib; first compound 2.53 µM),relative viability (IDH-C35 + Lapatinib; first compound 8 µM),relative viability ([2]; first compound 0.0025 µM),relative viability ([2]; first compound 0.007906 µM),relative viability ([2]; first compound 0.025 µM),relative viability ([2]; first compound 0.07906 µM),relative viability ([2]; first compound 0.25 µM)
NCI-H647,1.08,0.805,0.989,1.19,0.889,0.2,0.265,0.269,0.189,0.322,1.01,1.08,0.999,1.09,0.86,0.655,0.369,0.393,0.555,0.53
NCI-H650,0.774,0.93,0.755,,0.861,0.77,0.747,0.702,0.692,0.739,0.588,0.824,0.85,,0.884,0.499,0.431,0.4,0.458,0.472
NCI-H661,0.953,0.809,0.837,0.828,0.761,0.344,0.372,0.354,0.341,0.353,0.634,0.447,0.362,0.519,0.351,0.286,0.304,0.27,0.22,0.277
NCI-H727,0.891,0.896,0.801,0.782,0.94,0.676,0.788,0.696,0.513,0.513,0.874,0.779,0.801,0.728,0.947,0.424,0.504,0.486,0.489,0.372
NCI-H838,1.06,0.758,0.668,1.1,1.08,0.268,0.25,0.212,0.22,0.242,1.21,1.07,0.882,1.02,1.02,0.567,0.594,0.433,0.453,0.489
NCI-H1355,1.21,1.15,1.16,1.17,1.05,0.527,0.437,0.529,0.566,0.623,1.03,0.976,0.945,0.97,0.934,0.493,0.473,0.429,0.481,0.453
NCI-H1437,0.629,0.456,0.451,0.639,0.548,0.399,0.409,0.408,0.409,0.438,0.942,0.807,0.776,0.904,0.812,0.318,0.313,0.301,0.297,0.306
NCI-H1650,0.227,0.205,0.229,0.213,0.213,0.482,0.406,0.386,0.503,0.446,0.785,0.835,0.692,0.285,0.664,0.536,0.473,0.457,0.506,0.46
NCI-H1651,0.884,0.999,0.878,0.992,0.876,0.702,0.802,0.58,0.625,0.767,0.849,0.828,0.954,1,0.76,0.374,0.214,0.259,0.239,0.261
NCI-H1666,0.769,0.881,0.914,0.872,0.691,0.599,0.661,0.592,0.806,0.633,0.599,0.523,0.481,0.736,0.605,0.571,0.621,0.548,0.538,0.593
NCI-H1734,1.06,1.17,0.85,0.892,0.914,0.309,0.248,0.25,0.234,0.259,1.05,1.18,1.06,0.94,1.02,0.349,0.218,0.168,0.164,0.156
NCI-H1755,0.885,1.04,0.881,0.971,0.933,0.71,0.571,0.543,0.486,0.593,1.08,1.03,0.992,1.03,1.02,0.637,0.607,0.589,0.583,0.622
NCI-H1915,0.939,0.977,0.963,0.961,0.995,0.443,0.436,0.446,0.446,0.45,0.962,0.996,0.974,0.934,0.976,0.365,0.329,0.358,0.345,0.357
NCI-H1975,0.383,0.376,0.421,0.354,0.315,0.801,0.682,0.791,0.905,0.739,0.833,0.86,0.85,0.974,0.928,0.401,0.426,0.401,0.389,0.376
NCI-H1993,1.07,1.03,1.16,1.19,1.24,0.559,0.522,0.546,0.508,0.572,0.858,0.763,0.79,0.795,0.92,0.495,0.416,0.457,0.433,0.436
NCI-H2009,1.13,1.01,1.04,1.03,0.874,0.751,0.695,0.779,0.829,0.745,1,0.928,0.908,0.639,0.729,0.487,0.484,0.455,0.557,0.503
